Reference: patent EP0295827A2, “Use of 24,25-dihydroxy-cholecalciferol in mending bone fractures” (priority 1987, dated 1988)

Test: Acute toxicity, single oral administration
Conditions: mouse, in vivo, ICR male mice, read-out: LD₅₀ value
Experimental: 24,25-(OH)₂-D₃ in ethanol was dissolved in a triglyceride ester of a middle fatty acid so as to have an ethanol concentration of 2 %. The thus-prepared solution was orally administered to 10 ICR male mice (weight: 25 ± 3g). The dosage of 24,25-(OH)₂-D₃ was 100 mg/kg. […] When they were subjected to the biochemical blood test, anatomical examination and pathological histology after they were killed, there was no difference between the treated mice and a controlled group of mice to which only a triglyceride ester of a middle fatty acid containing 2% ethanol had been administered. Since the LD₅₀ value of the oral administration of 24,25-(OH)₂-D₃ was not less than 100 mg/kg, 24,25-(OH)₂-D₃ can be said to be very safe.

Structure (SMILES): C=C1CCC(O)CC1=CC=C1CCCC2(C)C1CCC2C(C)CCC(O)C(C)(C)O (stereo not shown) [24,25-(OH)₂-D₃, 24,25-dihydroxycholecalciferol]
- LD50 at 336 h: ≥ 100 mg/kg
